Reference: patent publication US10077243B2, “Compounds for treating disorders mediated by metabotropic glutamate receptor 5, and methods of use thereof” (Sunovion Pharmaceuticals Inc., priority 2009, dated 2018)

target: T1, human mGluR5 (Homo sapiens, UniProt P41594); assay: In vitro cell-based FLIPR calcium assay for positive modulation of the activation of mGluR5 by glutamate (PAM EC50); details: HEK293/GLAST cells expressing recombinant human mGluR5; FLIPR calcium signal; glutamate added at its EC20; read-out: mGluR5 PAM EC50
T1 construct: expressed in transfected cells; host or cells: HEK293 cells stably expressing rat GLAST (EAAT1), stably transfected with pcDNAzeo3.1 carrying synthetic human mGluR5 DNA; zeocin-selected single clones
T1 sequence (P41594 21-1212): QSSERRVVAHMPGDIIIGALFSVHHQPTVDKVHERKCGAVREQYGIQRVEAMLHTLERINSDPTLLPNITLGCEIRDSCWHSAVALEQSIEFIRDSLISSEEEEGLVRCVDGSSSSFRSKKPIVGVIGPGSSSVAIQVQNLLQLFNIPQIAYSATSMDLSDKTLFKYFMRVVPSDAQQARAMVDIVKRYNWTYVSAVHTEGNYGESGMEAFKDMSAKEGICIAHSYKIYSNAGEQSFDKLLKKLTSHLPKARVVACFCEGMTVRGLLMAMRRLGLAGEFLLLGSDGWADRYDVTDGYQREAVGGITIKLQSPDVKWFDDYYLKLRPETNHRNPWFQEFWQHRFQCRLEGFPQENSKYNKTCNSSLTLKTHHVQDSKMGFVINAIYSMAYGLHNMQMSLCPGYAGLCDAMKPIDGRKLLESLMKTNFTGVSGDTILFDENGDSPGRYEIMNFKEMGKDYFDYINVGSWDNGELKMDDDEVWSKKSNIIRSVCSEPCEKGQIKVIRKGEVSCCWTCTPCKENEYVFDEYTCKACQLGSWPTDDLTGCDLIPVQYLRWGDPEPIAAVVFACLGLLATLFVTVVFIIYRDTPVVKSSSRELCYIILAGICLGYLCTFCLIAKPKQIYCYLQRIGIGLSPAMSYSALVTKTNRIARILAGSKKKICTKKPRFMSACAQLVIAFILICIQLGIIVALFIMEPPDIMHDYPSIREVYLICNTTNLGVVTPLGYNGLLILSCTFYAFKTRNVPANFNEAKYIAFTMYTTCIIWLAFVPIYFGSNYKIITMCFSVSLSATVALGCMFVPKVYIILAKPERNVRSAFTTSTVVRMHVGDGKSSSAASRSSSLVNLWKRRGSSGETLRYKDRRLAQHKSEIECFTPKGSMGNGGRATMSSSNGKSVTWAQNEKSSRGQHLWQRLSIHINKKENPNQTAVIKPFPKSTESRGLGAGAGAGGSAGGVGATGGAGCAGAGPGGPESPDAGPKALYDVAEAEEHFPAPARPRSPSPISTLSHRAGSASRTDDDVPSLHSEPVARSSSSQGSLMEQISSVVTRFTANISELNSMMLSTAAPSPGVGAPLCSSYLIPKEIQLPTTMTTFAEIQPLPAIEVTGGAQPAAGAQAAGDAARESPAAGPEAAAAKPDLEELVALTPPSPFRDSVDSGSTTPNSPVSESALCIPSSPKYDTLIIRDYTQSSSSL
Summary of the method: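 PAM activity was measured as FLIPR calcium fluorescence in the presence of an EC20 glutamate concentration determined daily from a glutamate concentration-response curve. Cells were HEK293/GLAST clones expressing mGluR5, dye-loaded at 25 °C for 45–60 min in HEPES-buffered HBSS; vehicle control was 0.3% DMSO.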

| EC50 [nM] | Compound |
| --- | --- |
| < 10 | COC(C)c1nc2cc(C#Cc3cccc(F)c3)ccc2c(=O)n1C (centres unmarked) [Example 2.11, 7-((3-fluorophenyl)ethynyl)-2-(1-methoxyethyl)-3-methylquinazolin-4(3H)-one] |
| 300 to 1000 | O=c1c2ccc(C#Cc3cccc(F)c3)cc2nc2n1CCN(C1CCC1)CC2 [Example 8.11, 3-cyclobutyl-8-((3-fluorophenyl)ethynyl)-2,3,4,5-tetrahydro-[1,4]diazepino[7,1-b]quinazolin-11(1H)-one] |
| < 10 | O=c1c2c(nc3cc(C#Cc4ccncc4)ccn13)CCCCC2 [Example 16.5, 3-(pyridin-4-ylethynyl)-7,8,9,10-tetrahydrocyclohepta[d]pyrido[1,2-a]pyrimidin-11(6H)-one] |
| < 10 | CC1(C)CCc2nc3cc(C#Cc4ccccn4)ccc3c(=O)n2C1 [Example 4.16, 8,8-dimethyl-3-(pyridin-2-ylethynyl)-8,9-dihydro-6H-pyrido[2,1-b]quinazolin-11(7H)-one] |
| 30 to 100 | CC1(C)CCc2nc3nc(C#Cc4ccccn4)ccc3c(=O)n2C1 [Example 12.3, 8,8-dimethyl-2-(pyridin-2-ylethynyl)-7,8,9,10-tetrahydro-5H-dipyrido[1,2-a:2′,3′-d]pyrimidin-5-one] |
| 100 to 300 | CC1Cc2nc3cc(/C=C/c4cccc(F)c4)ccc3c(=O)n2C1 (centres unmarked) [Example 20.14, 6-(3-fluorostyryl)-2,3-dihydro-2-methylpyrrolo[2,1-b]quinazolin-9(1H)-one] |
| 300 to 1000 | CC1(C)CCn2c(nc3cc(CCc4ccccn4)ccc3c2=O)C1 [Example 21.6, 7,7-dimethyl-3-(2-(pyridin-2-yl)ethyl)-8,9-dihydro-6H-pyrido[2,1-b]quinazolin-11(7H)-one] |
| 100 to 300 | O=c1c2ccc(C#Cc3ccc(F)c(F)c3)cc2nc2n1CCC1(CC2)OCCO1 [Example 7.5] |
| 10 to 30 | COCCc1cnc2cc(C#Cc3cccc(F)c3)ccn2c1=O [Example 13.10, 8-((3-fluorophenyl)ethynyl)-3-(2-methoxyethyl)-4H-pyrido[1,2-a]pyrimidin-4-one] |
| < 10 | O=c1c2ccc(C#Cc3cccc(F)c3)cc2nc2n1CCC(O)CC2 (centres unmarked) [Example 6.15, 3-((3-fluorophenyl)ethynyl)-8-hydroxy-7,8,9,10-tetrahydroazepino[2,1-b]quinazolin-12(6H)-one] |
| 100 to 300 | COCCn1cnc2cc(C#Cc3ccncc3)ccc2c1=O [Example 1.17, 3-(2-methoxyethyl)-7-(pyridin-4-ylethynyl)quinazolin-4(3H)-one] |
| < 10 | O=c1c2ccc(C#Cc3cccc(F)c3)cc2nc2n1CC(CO)CC2 (centres unmarked) [Example 4.31, 3-((3-fluorophenyl)ethynyl)-8-(hydroxymethyl)-8,9-dihydro-6H-pyrido[2,1-b]quinazolin-11(7H)-one] |
| 300 to 1000 | O=c1c2ccc(C#Cc3cccc(F)c3)cc2nc2n1CCN(Cc1ccccc1)C2 [Example 5.10, 2-benzyl-9-((3-fluorophenyl)ethynyl)-3,4-dihydro-1H-pyrazino[2,1-b]quinazolin-6(2H)-one] |
| 100 to 300 | CN1CCCCC12Cc1nc3cc(C#Cc4cccc(F)c4)ccc3c(=O)n1C2 (centres unmarked) [Example 3.16, 6′-((3-fluorophenyl)ethynyl)-1-methyl-1′H-spiro[piperidine-2,2′-pyrrolo[2,1-b]quinazolin]-9′(3′ H)-one] |
| 100 to 300 | O=c1c2ccc(C#Cc3cccc(F)c3)cc2nc2n1CCCC2Cc1ccccc1 (centres unmarked) [Example 4.9, 6-benzyl-3-((3-fluorophenyl)ethynyl)-8,9-dihydro-6H-pyrido[2,1-b]quinazolin-11(7H)-one] |
| < 10 | COCC1CCc2nc3cc(C#Cc4cccc(F)c4)ccc3c(=O)n21 (centres unmarked) [Example 3.6, 6-((3-fluorophenyl)ethynyl)-1-(methoxymethyl)-2,3-dihydropyrrolo[2,1-b]quinazolin-9(1H)-one] |
| 30 to 100 | O=C1CCn2c(nc3cc(C#Cc4cccc(F)c4)ccc3c2=O)CCN1 [Example 10.6, 11-((3-fluorophenyl)ethynyl)-2,3,5,6-tetrahydro-1H-[1,5]diazocino[2,1-b]quinazoline-4,8-dione] |
| < 10 | CC1(C)CCCn2c(nc3cc(C#Cc4ccccn4)ccc3c2=O)C1 [Example 6.37, 7,7-dimethyl-3-(pyridin-2-ylethynyl)-7,8,9,10-tetrahydroazepino[2,1-b]quinazolin-12(6H)-one] |
| 10 to 30 | CN1CCCn2c(nc3cc(C#Cc4cccc(F)c4)ccc3c2=O)CC1 [Example 10.3, 11-((3-fluorophenyl)ethynyl)-3-methyl-3,4,5,6-tetrahydro-1H-[1,5]diazocino[2,1-b]quinazolin-8(2H)-one] |
| 10 to 30 | O=c1c2ccc(C#Cc3cccc(F)c3)cc2nc2n1CCC1(CCCO1)CC2 (centres unmarked) [Example 6.26, 3-((3-fluorophenyl)ethynyl)-4′,5′,9,10-tetrahydro-3′H,6H-spiro[azepino[2,1-b]quinazoline-8,2′-furan]-12(7H)-one] |
| 300 to 1000 | Cc1cc(F)ccc1C#Cc1ccc2c(=O)n3c(nc2c1)CCC1(CC3)OCCO1 [Example 7.6] |
| < 10 | O=c1c2ccc(C#Cc3ccccn3)cc2nc2n1C1CCC2CC1 [Example 4.48, 3-(pyridin-2-ylethynyl)-8,9-dihydro-6H-6,9-ethanopyrido[2,1-b]quinazolin-11(7H)-one] |
| 300 to 1000 | Cc1scnc1C#Cc1ccc2c(=O)n3c(nc2c1)CCC1(CC3)OCCO1 [Example 7.63] |
| < 10 | O=c1c2ccc(C#Cc3cccc(F)c3)cc2nc2n1CCC2 [Example 3.1, 6-((3-fluorophenyl)ethynyl)-2,3-dihydropyrrolo[2,1-b]quinazolin-9(1H)-one] |
| 30 to 100 | N#CCN1CCc2nc3cc(C#Cc4ccccn4)ccc3c(=O)n2CC1 [Example 8.23, 2-(11-oxo-8-(pyridin-2-ylethynyl)-1,2,4,5-tetrahydro-[1,4]diazepino[7,1-b]quinazolin-3(11H)-yl)acetonitrile] |
| 30 to 100 | COC1CCc2nc3cc(C#Cc4ccccn4)ccc3c(=O)n2C1 (centres unmarked) [Example 4.26, 8-methoxy-3-(pyridin-2-ylethynyl)-8,9-dihydro-6H-pyrido[2,1-b]quinazolin-11(7H)-one] |
| < 10 | COCCc1nc2cc(C#Cc3cccc(F)c3)ccc2c(=O)n1C [Example 2.1, 7-((3-fluorophenyl)ethynyl)-2-(2-methoxyethyl)-3-methylquinazolin-4(3H)-one] |
| 30 to 100 | Fc1ccc(C#Cc2ccc3c(c2)N=C2CCCCCN2C3)cc1 [Example 19.1, 3-((4-fluorophenyl)ethynyl)-6,7,8,9,10,12-hexahydroazepino[2,1-b]quinazoline] |
| 10 to 30 | COC1(C)CCc2nc3cc(C#Cc4ccccn4)ccc3c(=O)n2C1 (centres unmarked) [Example 4.46, 8-methoxy-8-methyl-3-(pyridin-2-ylethynyl)-8,9-dihydro-6H-pyrido[2,1-b]quinazolin-11(7H)-one] |
| 30 to 100 | Cc1csc(C#Cc2ccc3c(=O)n4c(nc3c2)CCC2(CC4)OCCO2)n1 [Example 7.61] |

| Compound | EC50 [nM] |
| --- | --- |
| CC1(C)CCc2c(nc3cc(C#Cc4ccccn4)ccn3c2=O)C1 [Example 15.3, 3,3-dimethyl-7-(pyridin-2-ylethynyl)-3,4-dihydro-1H-pyrido[2,1-b]quinazolin-11(2H)-one] | < 10 |
| CC(C)Cc1nc2cc(C#Cc3cccc(F)c3)ccc2c(=O)n1C [Example 2.12, 7-((3-fluorophenyl)ethynyl)-2-isobutyl-3-methylquinazolin-4(3H)-one] | 30 to 100 |
